Measurements taken from the supplement of paper PMC12137928.
Structures can show the parent of a compound that is named as a salt.

System: HCT116
Settings: 72 h
Method in brief: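 IC50 and maximal efficacy were derived from four-parameter Hill curve fits. The underlying CellTiter-Glo luminescence was scaled so that vehicle equals 0% and positive control equals -100%, and was then pattern-corrected. HCT116 cells had been seeded in 1536-well plates at 250 per well.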

SMILES | IC50 cell viability (ICRF193 0 nM) [µM] | IC50 cell viability (ICRF193 200 nM) [µM]
Cc1ccc(C2(O)CCN(CCCC(=O)c3ccc(F)cc3)CC2)cc1 [Moperone] | > 45.8 | > 45.8
Cc1ccsc1/C=C/C1=NCCCN1C [Morantel tartrate] | > 45.8 | > 45.8
CCOC(=O)Nc1ccc2c(c1)N(C(=O)CCN1CCOCC1)c1ccccc1S2 [Moricizine hydrochloride] | > 45.8 | > 45.8
CCOc1cc(N)c(Cl)cc1C(=O)NCC1CN(Cc2ccc(F)cc2)CCO1 (stereo not given) [Mosapride citrate] | > 45.8 | > 45.8
CO[C@@]1(NC(=O)C(C(=O)O)c2ccc(O)cc2)C(=O)N2C(C(=O)O)=C(CSc3nnnn3C)CO[C@@H]21 (stereo not given in full) [Moxalactam disodium] | > 45.8 | > 45.8
COc1c(N2C[C@@H]3CCCN[C@@H]3C2)c(F)cc2c(=O)c(C(=O)O)cn(C3CC3)c12 [Moxifloxacin (Hydrochloride)] | > 45.8 | > 45.8
CC(=O)Oc1cc(C(C)C)c(OCCN(C)C)cc1C [Moxisylyte hydrochloride] | > 45.8 | > 45.8
COc1nc(C)nc(Cl)c1NC1=NCCN1 [Moxonidine hydrochloride hydrate] | > 45.8 | > 45.8
O=C(O)[C@@H](O)[C@H](O)[C@H](O)[C@@H](O)C(=O)O [Mucic acid] | > 45.8 | > 45.8
C/C(=C\C(=O)OCCCCCCCCC(=O)O)C[C@@H]1OC[C@H](C[C@@H]2O[C@H]2[C@@H](C)[C@H](C)O)[C@@H](O)[C@H]1O [Mupirocin] | > 45.8 | > 45.8
Cl.Cl.c1ccc(CNCCNCc2ccccc2)cc1 [N,N'-Dibenzylethane-1,2-diamine dihydrochloride] | > 45.8 | > 45.8
C[N+](C)(C)CCCCCC[N+](C)(C)C [N,N,N,N',N',N'-Hexamethylhexane-1,6-diaminium] | > 45.8 | > 45.8
CN(C)CC(=O)O [N,N-DIMETHYLGLYCINE HYDROCHLORIDE] | > 45.8 | > 45.8
CN(C)Cc1ccccc1 [N,N-Dimethylbenzylamine] | > 45.8 | > 45.8
CC(=O)Nc1ccc(S(=O)(=O)Nc2cc(C)on2)cc1 [N-Acetyl sulfamethoxazole] | > 45.8 | > 45.8
CC(=O)N[C@@H](Cc1ccc(O)cc1)C(=O)O [N-Acetyl-L-tyrosine] | > 45.8 | > 45.8
c1ccc2sc(SNC3CCCCC3)nc2c1 [N-Cyclohexyl-2-benzothiazolesulfenamide] | > 45.8 | > 45.8
O=C1CCC(=O)N1CO [N-Hydroxymethylsuccinimide] | > 45.8 | > 45.8
CC([C@H](O)c1ccccc1)N(C)C (stereo partly drawn) [N-METHYL (-)EPHEDRINE [1R,2S]] | > 45.8 | > 45.8
c1ccc2sc(SN3CCOCC3)nc2c1 [N-Oxydiethylenebenzothiazole-2-sulfenamide] | > 45.8 | > 45.8
NC(=O)c1ccc[n+]([C@@H]2O[C@H](COP(=O)([O-])OP(=O)(O)OC[C@H]3O[C@@H](n4cnc5c(N)ncnc54)[C@H](O)[C@@H]3O)[C@@H](O)[C@H]2O)c1 [NAD+] | > 45.8 | > 45.8
c1ccc2ccccc2c1 [NAPHTHALENE, ZONE REFINED] | > 45.8 | > 45.8
C#C[C@]1(OC(C)=O)CC[C@H]2[C@@H]3CCC4=CC(=O)CC[C@@H]4[C@H]3CC[C@@]21C [NORETHINDRONE ACETATE] | > 45.8 | > 45.8
C#C[C@]1(O)CC[C@H]2[C@@H]3CCC4=C(CCC(=O)C4)[C@H]3CC[C@@]21C [NORETHYNODREL] | > 45.8 | > 45.8
CC(C)N(CCCCOCC(=O)NS(C)(=O)=O)c1cnc(-c2ccccc2)c(-c2ccccc2)n1 [NS-304] | > 45.8 | > 45.8
CC1C=CC=CCCC=CC=CC=CC=CC(OC2OC(C)C(O)C(N)C2O)CC2OC(O)(CC(O)C(O)CCC(O)CC(O)CC(O)CC(=O)OC(C)C(C)C1O)CC(O)C2C(=O)O (stereo not given) [NYSTATIN] | > 45.8 | > 45.8
COc1ccc2cc(CCC(C)=O)ccc2c1 [Nabumetone] | > 45.8 | > 45.8
CC1CCc2c(N3CCC(O)CC3)c(F)cc3c(=O)c(C(=O)O)cn1c23 (stereo not given) [Nadifloxacin] | > 45.8 | > 45.8
CC(C)(C)NCC(O)COc1cccc2c1CC(O)C(O)C2 (stereo not given) [Nadolol] | > 45.8 | > 45.8
N=C(N)Nc1ccc(C(=O)Oc2ccc3cc(C(=N)N)ccc3c2)cc1 [Nafamostat mesilate] | > 45.8 | > 45.8
